According to patent publication US20160242416A1, “FUNGICIDAL ISOXAZOLINE CARBINOLS” (E I DU PONT DE NEMOURS AND COMPANY, priority 2015, published 2016):
Like-named read-outs stand apart in the source and are kept apart here.

Assays:
Plasmopara viticola = assay: Test A: grape downy mildew, preventive spray on grape seedlings; type: in vivo; settings: 100 = 100% disease control, 0 = no control
From the text: A dash (-) indicates no test results.

Phytophthora infestans = type: in vivo; settings: tomato late blight, 100 = 100% disease control, 0 = no control
Botrytis cinerea = assay: Test B: gray mold, preventive spray on tomato seedlings; settings: gray mold on tomato, 100 = 100% disease control, 0 = no control
[1] = test system: Puccinia recondita f sp. tritici; assay: Test F: wheat leaf rust, preventive spray on wheat seedlings; settings: wheat leaf rust, 100 = 100% disease control, 0 = no control
Zymoseptoria tritici = assay: Test E: wheat leaf blotch, preventive spray on wheat seedlings; settings: wheat leaf blotch, 100 = 100% disease control, 0 = no control
Stagonospora nodorum = assay: Test D: wheat glume blotch, preventive spray on wheat seedlings; settings: wheat glume blotch, 100 = 100% disease control, 0 = no control
[2] = test system: Erysiphe graminis f sp. tritici; assay: Test G: wheat powdery mildew, preventive spray on wheat seedlings; settings: wheat powdery mildew, 100 = 100% disease control, 0 = no control

Row | SMILES | Test A rating (% disease control) (Plasmopara viticola; 10 ppm) [%] | Test C rating (% disease control) (Phytophthora infestans; 10 ppm) [%] | Test B rating (% disease control) (Botrytis cinerea; 10 ppm) [%] | Test F rating (% disease control) ([1]; 10 ppm) [%] | Test E rating (% disease control) (Zymoseptoria tritici; 10 ppm) [%] | Test D rating (% disease control) (Stagonospora nodorum; 10 ppm) [%] | Test G rating (% disease control) ([2]; 10 ppm) [%] | Test A rating (% disease control) (Plasmopara viticola; 50 ppm (asterisk)) [%] | Test C rating (% disease control) (Phytophthora infestans; 50 ppm (asterisk)) [%] | Test B rating (% disease control) (Botrytis cinerea; 50 ppm (asterisk)) [%] | Test F rating (% disease control) ([1]; 50 ppm (asterisk)) [%] | Test E rating (% disease control) (Zymoseptoria tritici; 50 ppm (asterisk)) [%] | Test D rating (% disease control) (Stagonospora nodorum; 50 ppm (asterisk)) [%] | Test G rating (% disease control) ([2]; 50 ppm (asterisk)) [%]
1 | OC(Cn1cncn1)(C1=NOC(Cn2ccc(-c3ccc(C(F)(F)F)cc3)n2)C1)c1ccc(Cl)cc1 (single isomer, unassigned) [Compound 67] | 13 | 0 | 0 | 100 | 0 | 0 | 99 | – | – | – | – | – | – | –
2 | OC(Cn1cncn1)(C1=NOC(COc2ccc(C(F)(F)F)cc2)C1)c1ccc(Cl)cc1 (single isomer, unassigned) [Compound 64] | 12 | 0 | 0 | 80 | 2 | 50 | 94 | – | – | – | – | – | – | –
3 | CC(O)(Cn1cncn1)C1=NOC(c2ccc(Cl)cc2)C1 (single isomer, unassigned) [Compound 36] | – | – | – | – | – | – | – | 11 | 0 | 0 | 17 | 0 | 53 | 99
4 | CC(O)(Cn1cncn1)C1=NOC(c2ccc(Cl)cc2)C1 (single isomer, unassigned) [Compound 35] | – | – | – | – | – | – | – | 21 | 0 | 0 | 40 | 0 | 63 | 100
5 | C=CCC(O)(Cn1cncn1)C1=NOC(c2ccc(Cl)cc2)C1 (single isomer, unassigned) [Compound 84] | 11 | 0 | 94 | 9 | 0 | 73 | 95 | – | – | – | – | – | – | –
6 | OC(Cc1ccc(Cl)cc1)(Cn1cncn1)C1=NOC(c2ccc(Cl)cc2)C1 (single isomer, unassigned) [Compound 94] | 0 | 0 | 0 | 100 | 0 | 98 | 99 | – | – | – | – | – | – | –
7 | CC(C)C(O)(Cn1cncn1)C1=NOC(c2ccc(Cl)cc2)C1 (single isomer, unassigned) [Compound 4] | 0 | 0 | 9 | 98 | 0 | 100 | 99 | – | – | – | – | – | – | –
8 | CC(C)C(O)(Cn1cncn1)C1=NOC(c2ccc(Cl)cc2)C1 (single isomer, unassigned) [Compound 3] | 9 | 0 | 46 | 97 | 0 | 100 | 100 | – | – | – | – | – | – | –
9 | CCC(O)(Cn1cncn1)C1=NOC(c2ccc(Cl)cc2)C1 (mixture of isomers) [Compound 34] | – | – | – | – | – | – | – | 34 | 0 | 0 | 53 | 0 | 99 | 100
10 | OC(Cn1cncn1)(C1=NOC(COc2ccc(Cl)cc2)C1)c1ccc(Cl)cc1 (single isomer, unassigned) [Compound 61] | 4 | 0 | 0 | 100 | 99 | 94 | 100 | – | – | – | – | – | – | –
11 | OC(Cn1cncn1)(C1=NOC(Cn2ccc(-c3ccc(Cl)cc3)n2)C1)c1ccc(Cl)cc1 (single isomer, unassigned) [Compound 65] | 3 | 0 | 0 | 100 | 0 | 0 | 98 | – | – | – | – | – | – | –
12 | OC(Cn1cncn1)(C1=NOC(Cn2ccc(-c3ccc(C(F)(F)F)cc3)n2)C1)c1ccc(Cl)cc1 (single isomer, unassigned) [Compound 68] | 3 | 0 | 0 | 99 | 2 | 0 | 95 | – | – | – | – | – | – | –
